Laboratory results published in patent US12503455B2, “Nucleic acid-binding photoprobes and uses thereof” (Arrakis Therapeutics, Inc., priority 2017, dated 2025).

Test system: Aptamer 21
Test: Competition between Aptamer 21 photoprobes and RNA-binding ligands (RT pausing)
Protocol: Aptamer 21 was either incubated with probe alone (ARK-581) or probe plus a 10-fold excess of RNA-binding ligand.
Both ARK-852 and ARK-139 inhibit the photocrosslinking of probes to Aptamer 21.
Folded RNA (1 μM) was incubated with the photoaffinity probe (10 μM) in total 25 μL of buffer (20 mM TrisHCl pH 8, 100 mM KCl, 3 mM MgCl2) with 2.5% DMSO for 30 min at 37° C. to allow binding to come to equilibrium. The sample was then irradiated with long wave UV light (˜365 nm) for 30 min in a UV crosslinker (Fisher Scientific).
A 3.75 μL aliquot of 10 μM reverse transcription primer was added to the cross-linked RNA sample, which was then incubated for 5 min at 65° C. and then cooled on ice. The sample was then diluted to a final volume of 60 μL and final buffer concentration of 1× Protoscript-II buffer (New England Biolabs), 0.5 mM dNTPs, 10 mM DTT, 0.4 U/μL RNase Inhibitor (New England Biolabs), and 10 U/μL Protoscript-II (New England Biolabs). The reaction was incubated at 45° C. for 2 h, 65° C. for 20 min, and then 4° C.
The RNA was hydrolyzed by the addition of 4.8 μL of 2.5 M NaOH and heating at 95° C. for 5 min. The reaction was quenched by the addition of 0.9 μL of acetic acid. The cDNA was precipitated by the addition of 6.6 μL of 3 M sodium acetate pH 5 and 181 μL ethanol, cooling to −80° C. for 1 h, and then centrifuging at 20,500×g at 4° C. for 30 min. The cDNA pellet was washed twice with 500 μL of 70% ethanol and then air dried for 5 min.
The cDNA pellet was resuspended in 12 μL of 1×TBE-urea sample loading buffer (Bio-Rad) and heated to 95° C. for 5 min. The sample was then run on a pre-cast 8.6×6.7 cm TBE-urea 10% PAGE gel (Bio-Rad) at 120 V until the lower bromophenol blue dye reached the bottom of the gel. The gel was stained with 1×SYBR-gold (Invitrogen) in 1×TBE buffer at room temperature for 20 min covered from light. The gel fluorescence was imaged on an Azure c600 instrument.

With `COC(=O)C1=C(COCc2cn(CCOCCOCCO)nn2)NC(c2ccncc2)=NC1c1ccc(F)cc1Cl` (racemic) [I-1] the “inhibition of photocrosslinking of ARK-581 to Aptamer 21” value (10-fold excess of RNA-binding ligand over probe) was “efficiently inhibited” and the “inhibition of photocrosslinking of probes to Aptamer 21 (RT pausing competition assay)” value (FIG. 65) was “inhibit”.
